Test results reported in US20160212997A1, “AGRICULTURAL CHEMICALS” (REDAG CROP PROTECTION LTD, priority 2013, published 2016).

Assays:
Format in all cases: in vivo
Tomato moths [1] = assay: Potter tower spray on tomato moths, knockdown and mortality
From the text: (§1) The compounds were screened at a range of five concentrations, diluted in DMSO. Some of the compounds were screened against aphids, whitefly and red spider mites and other compounds were screened against cabbage moth, and diamond black moths. A carrier only and an untreated control will also be conducted. Treatments were applied directly onto the insects within Petri dishes, using a potter tower.
(§2) Twenty mites and ten aphids, scales and moth larvae were placed within a Petri dish, lined with a suitable leaf disc on a damp cotton wool pad. Scales were already on leaves. The Petri dishes were then sprayed using a potter tower. The number of knocked down and anthropods were assessed at 24 and 48 hours post treatment. Five replicates were be performed for each treatment, for each species.

aphids, Myzus persicae = assay: Potter tower spray on aphids, knockdown and mortality; conditions: Aphids
Method in brief: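 Ten aphids (mixed sex and age) per Petri dish on a leaf disc were sprayed by Potter tower with compounds at five concentrations in DMSO. Knockdown and mortality were scored at 24 and 48 hours, five replicates per treatment, alongside carrier-only and untreated controls.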

Tomato moths [2] = assay: Potter tower spray on tomato moths, knockdown and mortality; remark: listed apart in the source
[3] = tested on: red spider mites, Tetranychus urticae; assay: Potter tower spray on red spider mites, knockdown and mortality; conditions: Spider mites
From the text: (§3) The compounds were screened for insecticidal efficacy against aphids, Myzus persicae, Cabbage moth, Mamestra brassicae, diamond black moths, Plutella xylostella, red spider mites, Tetranychus urticae, whitefly, Trialeurodes vaporariorum, in terms of knockdown and mortality.
(§4) Myzus persicae, Cabbage moth, Mamestra brassicae, diamond back moths, Plutella xylostella, red spider mites, Tetranychus urticae, whitefly, Trialeurodes vaporariorum, were obtained from specified laboratory cultures. Mixed sex and age aphids and mites, moth larvae and whitefly scale infested leaves were used in the experiments. Environmental conditions were closely monitored and recorded and were within the optimal range of the target species.
as §1, §2

[4] = tested on: Cabbage moth, Mamestra brassicae; assay: Potter tower spray on cabbage moth larvae, knockdown and mortality; conditions: Cabbage moths
From the text: as §3, §4, §1, §2

CC(c1ccc(C(F)(F)F)nc1)S(C)(=O)=NC#N (stereo not shown) [Compound 11, N-[Methyl-oxo-[1-[6-(trifluoromethyl)-3-pyridyl]ethyl]-λ^6-sulfanylidene]cyanamide, reference compound]
percentage control (Tomato moths [1]; 12.5 g/ha, 24 h): 0% | percentage control (Tomato moths [1]; 25 g/ha, 24 h): E (A percentage control of from 1 to 19 is indicated by the letter E) | percentage control (Tomato moths [1]; 25 g/ha, 48 h): E (A percentage control of from 1 to 19 is indicated by the letter E) | percentage control (Tomato moths [1]; 50 g/ha, 24 h): 0% | percentage control (Tomato moths [1]; 50 g/ha, 48 h): E (A percentage control of from 1 to 19 is indicated by the letter E) | percentage control (Tomato moths [1]; 100 g/ha, 48 h): E (A percentage control of from 1 to 19 is indicated by the letter E) | percentage control (Tomato moths [1]; 200 g/ha, 24 h): E (A percentage control of from 1 to 19 is indicated by the letter E) | percentage control (Tomato moths [1]; 200 g/ha, 48 h): E (A percentage control of from 1 to 19 is indicated by the letter E) | percentage control (aphids, Myzus persicae; 12.5 g/ha, 24 h): C (A percentage control of from 40 to 59 is indicated by the letter C) | percentage control (aphids, Myzus persicae; 12.5 g/ha, 48 h): B (A percentage control of from 60 to 79 is indicated by the letter B) | percentage control (aphids, Myzus persicae; 25 g/ha, 24 h): E (A percentage control of from 1 to 19 is indicated by the letter E) | percentage control (aphids, Myzus persicae; 25 g/ha, 48 h): B (A percentage control of from 60 to 79 is indicated by the letter B) | percentage control (aphids, Myzus persicae; 50 g/ha, 24 h): D (A percentage control of from 20 to 39 is indicated by the letter D) | percentage control (aphids, Myzus persicae; 50 g/ha, 48 h): B (A percentage control of from 60 to 79 is indicated by the letter B) | percentage control (aphids, Myzus persicae; 100 g/ha, 24 h): A (A percentage control of from 80 to 100 is indicated by the letter A) | percentage control (aphids, Myzus persicae; 100 g/ha, 48 h): A (A percentage control of from 80 to 100 is indicated by the letter A) | percentage control (aphids, Myzus persicae; 200 g/ha, 24 h): B (A percentage control of from 60 to 79 is indicated by the letter B) | percentage control (aphids, Myzus persicae; 200 g/ha, 48 h): A (A percentage control of from 80 to 100 is indicated by the letter A) | percentage control (Tomato moths [2]; 12.5 g/ha, 48 h): E (A percentage control of from 1 to 19 is indicated by the letter E) | percentage control (Tomato moths [2]; 100 g/ha, 24 h): E (A percentage control of from 1 to 19 is indicated by the letter E) | percentage control ([3]; 12.5 g/ha, 24 h): E (A percentage control of from 1 to 19 is indicated by the letter E) | percentage control ([3]; 12.5 g/ha, 48 h): D (A percentage control of from 20 to 39 is indicated by the letter D) | percentage control ([3]; 25 g/ha, 24 h): E (A percentage control of from 1 to 19 is indicated by the letter E) | percentage control ([3]; 25 g/ha, 48 h): E (A percentage control of from 1 to 19 is indicated by the letter E) | percentage control ([3]; 50 g/ha, 24 h): D (A percentage control of from 20 to 39 is indicated by the letter D) | percentage control ([3]; 50 g/ha, 48 h): D (A percentage control of from 20 to 39 is indicated by the letter D) | percentage control ([3]; 100 g/ha, 24 h): D (A percentage control of from 20 to 39 is indicated by the letter D) | percentage control ([3]; 100 g/ha, 48 h): D (A percentage control of from 20 to 39 is indicated by the letter D) | percentage control ([3]; 200 g/ha, 24 h): C (A percentage control of from 40 to 59 is indicated by the letter C) | percentage control ([3]; 200 g/ha, 48 h): C (A percentage control of from 40 to 59 is indicated by the letter C) | percentage control ([4]; 12.5 g/ha, 24 h): E (A percentage control of from 1 to 19 is indicated by the letter E) | percentage control ([4]; 12.5 g/ha, 48 h): E (A percentage control of from 1 to 19 is indicated by the letter E) | percentage control ([4]; 25 g/ha, 24 h): E (A percentage control of from 1 to 19 is indicated by the letter E) | percentage control ([4]; 25 g/ha, 48 h): E (A percentage control of from 1 to 19 is indicated by the letter E) | percentage control ([4]; 50 g/ha, 24 h): E (A percentage control of from 1 to 19 is indicated by the letter E) | percentage control ([4]; 50 g/ha, 48 h): E (A percentage control of from 1 to 19 is indicated by the letter E) | percentage control ([4]; 100 g/ha, 24 h): E (A percentage control of from 1 to 19 is indicated by the letter E) | percentage control ([4]; 100 g/ha, 48 h): E (A percentage control of from 1 to 19 is indicated by the letter E) | percentage control ([4]; 200 g/ha, 24 h): E (A percentage control of from 1 to 19 is indicated by the letter E) | percentage control ([4]; 200 g/ha, 48 h): E (A percentage control of from 1 to 19 is indicated by the letter E)
